Assay results: patent publication US11730720B2, “ALK5 inhibitors” (THERAVANCE BIOPHARMA R&D IP, LLC, priority 2018, dated 2023)

Key:
[1] = biological target: T1, recombinant human ALK5 (TGF-βR1) protein (Homo sapiens, UniProt P36897); assay: Biochemical ALK5 (TGF-βR1) assay to measure pKi (LANCE Ultra ULight kinase assay); conditions: apparent pKi, converted from pIC50 using the Cheng-Prusoff equation
T1 construct: purchased Life Technologies PR9075A
T1 sequence (P36897 34-503): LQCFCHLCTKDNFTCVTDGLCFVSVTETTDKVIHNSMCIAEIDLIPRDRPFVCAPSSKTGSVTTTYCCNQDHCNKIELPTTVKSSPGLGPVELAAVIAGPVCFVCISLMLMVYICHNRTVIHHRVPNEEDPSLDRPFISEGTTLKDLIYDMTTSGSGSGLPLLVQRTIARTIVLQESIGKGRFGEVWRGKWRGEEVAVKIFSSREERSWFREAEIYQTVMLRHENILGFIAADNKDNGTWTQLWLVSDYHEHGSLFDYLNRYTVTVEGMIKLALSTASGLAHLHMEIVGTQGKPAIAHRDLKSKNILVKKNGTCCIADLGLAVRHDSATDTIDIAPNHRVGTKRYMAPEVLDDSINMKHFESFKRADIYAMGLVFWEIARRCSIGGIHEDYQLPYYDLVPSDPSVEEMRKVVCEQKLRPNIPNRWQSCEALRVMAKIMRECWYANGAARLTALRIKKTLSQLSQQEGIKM
Procedure, shortened: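 TR-FRET kinase format: compound dose range 10 μM–25 pM equilibrated 60 min with human ALK5 and ULight-labelled topoisomerase 2α peptide in HEPES/MgCl2 buffer pH 7.5 with DTT. Reaction started with ATP (125 μM stock, 5× final), 60 min at 37° C, stopped with EDTA/Eu-anti-phospho antibody; pKi derived from pIC50 via Cheng-Prusoff.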

[2] = test system: TGF-β-stimulated SMAD3 phosphorylation in BEAS-2B cells; assay: Cellular ALK5 potency assay, inhibition of TGF-β stimulated pSMAD3 formation in BEAS-2B cells; type: cell-based; conditions: Homo sapiens, inhibition of TGF-β (10 ng/mL) stimulated pSMAD3 formation, 1 hour compound incubation, read-out: BEAS2B pIC50 (converted)
Procedure, shortened: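 Phospho-SMAD3 was quantified by AlphaLISA in lysates of human lung epithelial BEAS-2B cells. Compound was added 1 h (37 °C, HEPES/BSA-supplemented HBSS) before a 30 min challenge with 10 ng/mL TGF-β. Values are pIC50 relative to stimulated cells without compound.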

Structure (SMILES) | Ki [1] [nM] | IC50 [2] [nM]
CN(CCN1CCNCC1)c1cnc2ccc(-c3c[nH]nc3-c3cc(Cl)ccc3F)nc2c1 [Compound 1-53, 6-[3-(5-chloro-2-fluoro-phenyl)-1H-pyrazol-4-yl]-N-methyl-N-(2-piperazin-1-ylethyl)-1,5-naphthyridin-3-amine] | 0.0398 to 0.316 | 25.1 to 158
Fc1ccc(Cl)cc1-c1n[nH]cc1-c1ccc2ncc(N3CC4CNCC43)cc2n1 (stereo not shown) [Compound 1-54, 2-[3-(5-chloro-2-fluoro-phenyl)-1H-pyrazol-4-yl]-7-(3,6-diazabicyclo[3.2.0]heptan-6-yl)-1,5-naphthyridine] | 0.398 to 3.16 | 25.1 to 158
NC1CCN(c2cnc3ccc(-c4c[nH]nc4-c4cc(Cl)ccc4F)nc3c2)C1 (stereo not shown) [Compound 1-55, 1-[6-[3-(5-chloro-2-fluoro-phenyl)-1H-pyrazol-4-yl]-1,5-naphthyridin-3-yl]pyrrolidin-3-amine] | ≤ 0.0316 | ≤ 20
CNC1CCN(c2cnc3ccc(-c4c[nH]nc4-c4cc(Cl)ccc4F)nc3c2)C1 (stereo not shown) [Compound 1-56, 1-[6-[3-(5-chloro-2-fluoro-phenyl)-1H-pyrazol-4-yl]-1,5-naphthyridin-3-yl]-N-methyl-pyrrolidin-3-amine] | 0.0398 to 0.316 | ≤ 20
NCCN1CCN(c2cnc3ccc(-c4c[nH]nc4-c4cc(Cl)ccc4F)nc3c2)CC1 [Compound 1-57, 2-[4-[6-[3-(5-chloro-2-fluoro-phenyl)-1H-pyrazol-4-yl]-1,5-naphthyridin-3-yl]piperazin-1-yl]ethanamine] | 0.0398 to 0.316 | 25.1 to 158
CNC(=O)[C@@H]1CN(c2cnc3ccc(-c4c[nH]nc4-c4cc(Cl)ccc4F)nc3c2)CCN1 [Compound 1-58, (2S)-4-[6-[3-(5-chloro-2-fluoro-phenyl)-1H-pyrazol-4-yl]-1,5-naphthyridin-3-yl]-N-methyl-piperazine-2-carboxamide] | 0.0398 to 0.316 | 25.1 to 158
COC(=O)[C@@H]1CN(c2cnc3ccc(-c4c[nH]nc4-c4cc(Cl)ccc4F)nc3c2)CCN1 [Compound 1-59, methyl (2S)-4-[6-[3-(5-chloro-2-fluoro-phenyl)-1H-pyrazol-4-yl]-1,5-naphthyridin-3-yl]piperazine-2-carboxylate] | 0.398 to 3.16 | 25.1 to 158
CNC1CCN(c2cnc3ccc(-c4c[nH]nc4-c4cc(Cl)ccc4F)nc3c2)CC1 [Compound 1-60, 1-[6-[3-(5-chloro-2-fluoro-phenyl)-1H-pyrazol-4-yl]-1,5-naphthyridin-3-yl]-N-methyl-piperidin-4-amine] | 0.0398 to 0.316 | 25.1 to 158
CN(C)C(=O)[C@H]1CN(c2cnc3ccc(-c4c[nH]nc4-c4cc(Cl)ccc4F)nc3c2)CCN1 [Compound 1-61, (2R)-4-[6-[3-(5-chloro-2-fluoro-phenyl)-1H-pyrazol-4-yl]-1,5-naphthyridin-3-yl]-N,N-dimethyl-piperazine-2-carboxamide] | 0.398 to 3.16 | 25.1 to 158
COC(=O)[C@H]1CN(c2cnc3ccc(-c4c[nH]nc4-c4cc(Cl)ccc4F)nc3c2)CCN1 [Compound 1-62, methyl (2R)-4-[6-[3-(5-chloro-2-fluoro-phenyl)-1H-pyrazol-4-yl]-1,5-naphthyridin-3-yl]piperazine-2-carboxylate] | 0.398 to 3.16 | 25.1 to 158
Fc1ccc(Cl)cc1-c1n[nH]cc1-c1ccc2ncc(N3CCCNCC3)cc2n1 [Compound 1-63, 2-[3-(5-chloro-2-fluoro-phenyl)-1H-pyrazol-4-yl]-7-(1,4-diazepan-1-yl)-1,5-naphthyridine] | 0.398 to 3.16 | 25.1 to 158
Fc1ccc(Cl)cc1-c1n[nH]cc1-c1ccc2ncc(N3CC4CNC4C3)cc2n1 (stereo not shown) [Compound 1-64, 2-[3-(5-chloro-2-fluoro-phenyl)-1H-pyrazol-4-yl]-7-(3,6-diazabicyclo[3.2.0]heptan-3-yl)-1,5-naphthyridine] | 0.0398 to 0.316 | ≤ 20
COC(=O)[C@H]1CN(c2cnc3ccc(-c4c[nH]nc4-c4cc(Cl)ccc4F)nc3c2)CCN1C [Compound 1-65, methyl (2R)-4-[6-[3-(5-chloro-2-fluoro-phenyl)-1H-pyrazol-4-yl]-1,5-naphthyridin-3-yl]-1-methyl-piperazine-2-carboxylate] | 0.398 to 3.16 | 25.1 to 158
CC(C)NC(=O)[C@H]1CN(c2cnc3ccc(-c4c[nH]nc4-c4cc(Cl)ccc4F)nc3c2)CCN1 [Compound 1-66, (R)-4-(6-(3-(5-Chloro-2-fluorophenyl)-1H-pyrazol-4-yl)-1,5-naphthyridin-3-yl)-N-isopropylpiperazine-2-carboxamide] | 0.398 to 3.16 | 25.1 to 158
O=C(NCc1ccccc1)[C@H]1CN(c2cnc3ccc(-c4c[nH]nc4-c4cc(Cl)ccc4F)nc3c2)CCN1 [Compound 1-67, (2R)-N-benzyl-4-[6-[3-(5-chloro-2-fluoro-phenyl)-1H-pyrazol-4-yl]-1,5-naphthyridin-3-yl]piperazine-2-carboxamide] | 0.398 to 3.16 | 25.1 to 158
CC(C)OC(=O)[C@H]1CN(c2cnc3ccc(-c4c[nH]nc4-c4cc(Cl)ccc4F)nc3c2)CCN1 [Compound 1-68, isopropyl (2R)-4-[6-[3-(5-chloro-2-fluoro-phenyl)-1H-pyrazol-4-yl]-1,5-naphthyridin-3-yl]piperazine-2-carboxylate] | 0.398 to 3.16 | 25.1 to 158
CC(C)N1CC2CN(c3cnc4ccc(-c5c[nH]nc5-c5cc(Cl)ccc5F)nc4c3)CC21 (stereo not shown) [Compound 1-70, 2-(3-(5-chloro-2-fluorophenyl)-112-pyrazol-4-yl)-7-(6-isopropyl-3,6-diazabicyclo[3.2.0]heptan-3-yl)-1,5-naphthyridine] | 0.0398 to 0.316 | 25.1 to 158
CN(C)CCN1CCN(c2cnc3ccc(-c4c[nH]nc4-c4cc(Cl)ccc4F)nc3c2)CC1 [Compound 1-71, 2-[4-[6-[3-(5-chloro-2-fluoro-phenyl)-1H-pyrazol-4-yl]-1,5-naphthyridin-3-yl]piperazin-1-yl]-N,N-dimethyl-ethanamine] | ≤ 0.0316 | ≤ 20
CN1CC2CN(c3cnc4ccc(-c5c[nH]nc5-c5cc(Cl)ccc5F)nc4c3)C2C1 (stereo not shown) [Compound 1-72, 2-[3-(5-chloro-2-fluoro-phenyl)-1H-pyrazol-4-yl]-7-(3-methyl-3,6-diazabicyclo[3.2.0]heptan-6-yl)-1,5-naphthyridine] | 0.398 to 3.16 | 25.1 to 158
CC(C)N1CC2CN(c3cnc4ccc(-c5c[nH]nc5-c5cc(Cl)ccc5F)nc4c3)C2C1 (stereo not shown) [Compound 1-73, 2-[3-(5-chloro-2-fluoro-phenyl)-1H-pyrazol-4-yl]-7-(3-isopropyl-3,6-diazabicyclo[3.2.0]heptan-6-yl)-1,5-naphthyridine] | 3.98 to 31.6 | 25.1 to 158
CN1CC2CN(c3cnc4ccc(-c5c[nH]nc5-c5cc(Cl)ccc5F)nc4c3)CC21 (stereo not shown) [Compound 1-74, 2-[3-(5-chloro-2-fluoro-phenyl)-1H-pyrazol-4-yl]-7-(6-methyl-3,6-diazabicyclo[3.2.0]heptan-3-yl)-1,5-naphthyridine] | 0.398 to 3.16 | 25.1 to 158
CC(C)NCCN1CCN(c2cnc3ccc(-c4c[nH]nc4-c4cc(Cl)ccc4F)nc3c2)CC1 [Compound 1-76, N-[2-[4-[6-[3-(5-chloro-2-fluoro-phenyl)-1H-pyrazol-4-yl]-1,5-naphthyridin-3-yl]piperazin-1-yl]ethyl]propan-2-amine] | ≤ 0.0316 | 25.1 to 158
CN1CCN(C2CCN(c3cnc4ccc(-c5c[nH]nc5-c5cc(Cl)ccc5F)nc4c3)CC2)CC1 [Compound 1-83, 2-[3-(5-chloro-2-fluoro-phenyl)-1H-pyrazol-4-yl]-7-[4-(4-methylpiperazin-1-yl)-1-piperidyl]-1,5-naphthyridine] | ≤ 0.0316 | ≤ 20
Fc1ccc(Cl)cc1-c1n[nH]cc1-c1ccc2ncc(N3CCn4nc(C5=CCNC5)nc4C3)cc2n1 [Compound 1-85, 2-(3-(5-chloro-2-fluorophenyl)-1H-pyrazol-4-yl)-7-(2-(2,5-dihydro-1H-pyrrol-3-yl)-5,6-dihydro-[1,2,4]triazolo[1,5-a]pyrazin-7(8H)-yl)-1,5-naphthyridine] | ≤ 0.0316 | 25.1 to 158
CN1CC=C(c2nc3n(n2)CCN(c2cnc4ccc(-c5c[nH]nc5-c5cc(Cl)ccc5F)nc4c2)C3)C1 [Compound 1-86, 2-(3-(5-chloro-2-fluorophenyl)-1H-pyrazol-4-yl)-7-(2-(1-methyl-2,5-dihydro-1H-pyrrol-3-yl)-5,6-dihydro-[1,2,4]triazolo[1,5-a]pyrazin-7(8H)-yl)-1,5-naphthyridine] | ≤ 0.0316 | 25.1 to 158
CNCCn1cc(-c2cnc3ccc(-c4c[nH]nc4-c4cc(Cl)ccc4F)nc3c2)cn1 [Compound 1-87, 2-(4-(6-(3-(5-chloro-2-fluorophenyl)-1H-pyrazol-4-yl)-1,5-naphthyridin-3-yl)-1H-pyrazol-1-yl)-N-methylethan-1-amine] | ≤ 0.0316 | ≤ 20
